Experimental data reported in PubChem BioAssay AID1259407 (Chemical Carcinogenesis Research Information System (CCRIS), 2018).
Calls of active or inactive are those of the source. How the calls were made is not given here.

Test system: CCRIS mutagenicity, Ames/micronucleus/aberration tests
Assay: CCRIS mutagenicity studies
Conditions: Test System: AMES SALMONELLA TYPHIMURIUM
[1] = Strain/Indicator: TA97, Metabolic Activation: NONE, Method: PREINCUBATION
[2] = Strain/Indicator: TA98, Metabolic Activation: NONE, Method: PREINCUBATION
[3] = Strain/Indicator: TA100, Metabolic Activation: NONE, Method: PREINCUBATION

Question: Which results are given for `Nc1cccc2c(=O)[nH][nH]c(=O)c12`?
Answer: mutagenic call (Strain/Indicator: TA97, Metabolic Activation: HAMSTER, LIVER, S-9, AROCLOR 1254 (10 OR 30%), Method: PREINCUBATION): inactive; negative; mutagenic call [1]: inactive; negative; mutagenic call (Strain/Indicator: TA97, Metabolic Activation: RAT, LIVER, S-9, AROCLOR 1254 (10 OR 30%), Method: PREINCUBATION): inactive; negative; mutagenic call (Strain/Indicator: TA98, Metabolic Activation: HAMSTER, LIVER, S-9, AROCLOR 1254 (10 OR 30%), Method: PREINCUBATION): inactive; negative; mutagenic call [2]: inactive; negative; mutagenic call (Strain/Indicator: TA98, Metabolic Activation: RAT, LIVER, S-9, AROCLOR 1254 (10 OR 30%), Method: PREINCUBATION): inactive; negative; mutagenic call (Strain/Indicator: TA100, Metabolic Activation: HAMSTER, LIVER, S-9, AROCLOR 1254 (10 OR 30%), Method: PREINCUBATION): inactive; negative; mutagenic call [3]: inactive; negative; mutagenic call (Strain/Indicator: TA100, Metabolic Activation: RAT, LIVER, S-9, AROCLOR 1254 (10 OR 30%), Method: PREINCUBATION): inactive; negative; mutagenic call (Strain/Indicator: TA1535, Metabolic Activation: HAMSTER, LIVER, S-9, AROCLOR 1254 (10 OR 30%), Method: PREINCUBATION): inactive; negative; mutagenic call (Strain/Indicator: TA1535, Metabolic Activation: NONE, Method: PREINCUBATION): inactive; negative; mutagenic call (Strain/Indicator: TA1535, Metabolic Activation: RAT, LIVER, S-9, AROCLOR 1254 (10 OR 30%), Method: PREINCUBATION): inactive; negative; mutagenic call (Strain/Indicator: TA1537, Metabolic Activation: HAMSTER, LIVER, S-9, AROCLOR 1254 (10 OR 30%), Method: PREINCUBATION): inactive; negative; mutagenic call (Strain/Indicator: TA1537, Metabolic Activation: NONE, Method: PREINCUBATION): inactive; negative; mutagenic call (Strain/Indicator: TA1537, Metabolic Activation: RAT, LIVER, S-9, AROCLOR 1254 (10 OR 30%), Method: PREINCUBATION): inactive; negative

Question: What does the source list for `COc1ccc2cc1Oc1ccc(cc1)C[C@H]1c3cc(c(OC)cc3CCN1C)Oc1c(OC)c(OC)cc3c1[C@H](C2)N(C)CC3`?
Answer: mutagenic call (Strain/Indicator: TA98, Metabolic Activation: NONE, Method: STANDARD PLATE): inactive; negative; mutagenic call (Strain/Indicator: TA98, Metabolic Activation: RAT, LIVER, S-9, AROCLOR 1254, Method: STANDARD PLATE): active; positive; mutagenic call (Strain/Indicator: TA100, Metabolic Activation: NONE, Method: STANDARD PLATE): inactive; negative; mutagenic call (Strain/Indicator: TA100, Metabolic Activation: RAT, LIVER, S-9, AROCLOR 1254, Method: STANDARD PLATE): inactive; negative

Question: `COc1cc(C(C)=O)cc(OC)c1O` was tested. Which mutagenic call [1] did it give?
Answer: inactive; negative

Question: What about the mutagenic call (Strain/Indicator: TA97, Metabolic Activation: RAT, LIVER, S-9, AROCLOR 1254, Method: PREINCUBATION) of the same compound?
Answer: inactive; negative

Question: What about the mutagenic call [2] of the same compound?
Answer: inactive; negative

Question: And the mutagenic call (Strain/Indicator: TA98, Metabolic Activation: RAT, LIVER, S-9, AROCLOR 1254, Method: PREINCUBATION)?
Answer: inactive; negative

Question: What about the mutagenic call [3] of the same compound?
Answer: inactive; negative

Question: What about the mutagenic call (Strain/Indicator: TA100, Metabolic Activation: RAT, LIVER, S-9, AROCLOR 1254, Method: PREINCUBATION) of the same compound?
Answer: inactive; negative

Question: What about the mutagenic call (Strain/Indicator: TA102, Metabolic Activation: NONE, Method: PREINCUBATION) of the same compound?
Answer: inactive; negative

Question: What about the mutagenic call (Strain/Indicator: TA102, Metabolic Activation: RAT, LIVER, S-9, AROCLOR 1254, Method: PREINCUBATION) of the same compound?
Answer: inactive; negative
